# Like-named read-outs stand apart in the source and are kept apart here.
# Experiments:
# [1] = tested on: S. aureus biofilms; test: MBIC and checkerboard synergy on preformed biofilm (MTT assay); assay type: cell-based, Staphylococcus aureus
# Method: […] LB supplemented with 50 μg/mL CaCl2 was used for daptomycin treatment wells. The contents of the well was aspirated out and discarded. The biofilm adhered to the wells was quantified by MTT assay as described above. The MBIC was defined as the minimum concentration of P128 or the drug showing no colour development. […] In each experiment, in addition to the combination MBIC, the MBIC of each drug was also determined individually. The fractional MBIC concentrations were determined by MTT dye method as described above. The FICI and synergy was also calculated in a similar manner.
# The ability of P128 to inhibit growth of S. aureus in a preformed biofilm was measured by determining minimum biofilm inhibition concentration (MBIC), defined as minimum concentration showing growth inhibition in a MTT based assay. […] 11:226.
# The assay was optimized using the standard S. aureus strain ATCC 29213. An overnight-grown culture of the strain was diluted 1:40 in LB broth 200 μL of diluted culture was aliquoted into microtiter plate wells. Microplates were placed in a shaker-incubator set to 37° C., and 100 rpm for 24 h followed by 48 h incubation under static conditions at 37° C. The contents of one set of four wells were aspirated and discarded. Wells were washed twice with 1×PBS and the presence of biofilm in the wells at the end of this 72-hour period was determined by metabolic dye-reduction assay method using MTT (3-(4, 5-dimethylthiazol-5-diphenyltetrazolium bromide; Himedia). In this assay, live cells reduce the dye leading to color formation which can be read at 570 nm, and the intensity of color can be correlated to number of live cells. 100 μL of PBS was added to the wells along with 10 μL of MTT solution. The plate was incubated for 2 h in the dark. After this, 110 μL of solvent solution solubilizing agent was added and the plate was incubated for 15 minutes at ambient temperature with gentle agitation. The absorbance was read at 570 nm in a microplate reader. Another set of four wells was processed for harvesting the biofilm and determination of CFUs present by plating on solid media. For biofilm inhibitory studies, the wells were washed twice with 1×PBS and challenged with various concentrations of P128 or other antibiotic drugs and incubated for 24 h at 37° C. The contents of the well was aspirated out and discarded. The biofilm adhered to the wells was quantified by MTT assay as described above. The MBIC was defined as the minimum concentration of P128 or the drug showing no colour development. […] In each experiment, in addition to the combination MBIC, the MBIC of each drug was also determined individually. The fractional MBIC concentrations were determined by MTT dye method as described above. The FICI and synergy was also calculated in a similar manner.
# In order to determine whether P128 could synergize with known anti-Staphylococcus drugs to inhibit S. aureus in biofilms. […] The assays were performed in a 96 well checkerboard format using various concentrations of P128 and one of the antibiotics.
# [2] = tested on: S. aureus BK1 biofilms; test: Scanning electron microscopy of treated biofilms in microtitre plates; assay type: cell-based, Staphylococcus aureus; details: Gentamycin 50 μg/mL; P128 12.5 μg/mL (lowest concentration tested)
# Method: MRSA strain BK1 or MW2 was used for studying biofilm eradication activity of P128 by SEM. For this, biofilms formed in microtitre plates or on the surface of catheters were treated with increasing concentrations of P128 or antibiotics and subjected to SEM. S. aureus BK1 or MW2 was revived on blood agar plates and the culture was grown overnight in TSB supplemented with 20% glucose. The overnight-grown culture was diluted 1:50 in TSB with 2% glucose to achieve OD600=˜0.1. 200 μL of the diluted culture was aliquoted into each well of the 96 well plate and incubated at 37° C. under static conditions for 18 h. After incubation the contents were aspirated, washed twice with 200 μL of PBS, and 100 μL of media+100 μL of drug were added to each well and incubated again at 37° C. for 18 h. The contents were aspirated, washed with 200 μL of PBS and allowed to dry at 37° C. for 15 min. The individual wells were cut out and biofilms visualized by SEM.
# [3] = tested on: S. aureus; test: MIC and checkerboard synergy (broth microdilution) on planktonic cells; assay type: cell-based, Staphylococcus aureus; details: for MIC: Staphylococcus aureus, read-out: MIC (drug alone)
# Method: MIC was determined using a modified Clinical and Laboratory Standards Institute (CLSI) broth microdilution procedure described earlier in Vipra, et al. (2012) “Antistaphylococcal activity of bacteriophage derived chimeric protein P128” BMC Microbiol. 12:41-50; and Clinical and Laboratory Standards Institute (2012) “Methods for Dilution Antimicrobial Susceptibility Tests for Bacteria That Grow Aerobically; Approved Standard” CLSI document M07-A9.9 ed. Wayne, Pa. USA. In order to determine effects of combinations of P128 with antibiotics, combinations of various dilutions of P128 and a second drug were tested for growth inhibition using a microdilution checkerboard technique. See Lu, et al. (2013) “In vitro activity of sodium new houttuyfonate alone and in combination with oxacillin or netilmicin against methicillin-resistant Staphylococcus aureus” PLoS One 8:e68053. Briefly, S. aureus culture at a final cell number of 5×10^5 CFU/mL was added to wells of 96-well microtiter plates (precoated with 0.5% BSA), containing two-fold dilutions of P128 and the second drug in cation adjusted Mueller Hinton Broth (CAMHB). The plates were incubated at 37° C. for 24 h and the individual MICs and the combination MICs were read. The fractional inhibitory concentration index (FICI) was determined using the following equation: FICI=(MIC of drug A in the combination/MIC of drug A alone)+(MIC of drug B in the combination/MIC of drug B alone). The combination was considered to be synergistic when the FICI was ≤0.5; additive when FICI was 0.5-1.0; indifferent when FICI was 1-4 and antagonistic when FICI≥4. The experiments were performed in triplicate and repeated twice.
# In order to find out whether P128 can act in a synergistic manner with commonly used antibiotics, MIC based growth inhibition assays were performed. MIC based synergy was studied by checkerboard method by determining the FIC index using the method of Lu, et at (2013) “In vitro activity of sodium new houttuyfonate alone and in combination with oxacillin or netilmicin against methicillin-resistant Staphylococcus aureus” PLoS One 8:e68053. […] Similarly.
# (§1) Bacterial cultures at a final cell number of 5×10^5 CFU/mL was added to wells of 96-well microtiter plates (precoated with 0.5% BSA), containing two-fold dilutions of P128 and the second drug in cation adjusted Mueller Hinton Broth (CAMHB). The plates were incubated at 37° C. for 24 h and the individual MICs and the combination MICs were read. The fractional inhibitory concentration index (FICI) was determined using the following equation: FICI=(MIC of drug A in the combination/MIC of drug A alone)+(MIC of drug B in the combination/MIC of drug B alone). The combination was considered to be synergistic when the FICI was ≤0.5; additive when FICI was 0.5-1.0; indifferent when FICI was 1-4 and antagonistic when FICI≥4.
# [4] = tested on: S. epidermidis; test: as above; assay type: cell-based, Staphylococcus epidermidis; details: for MIC: Staphylococcus epidermidis
# Method: as §1
# S. epidermidis culture at a final cell number of 5×10^5 CFU/mL was added to wells of 96-well microtiter plates (precoated with 0.5% BSA), containing two-fold dilutions of P128 and either Daptomycin or Oxacillin in cation adjusted Mueller Hinton Broth (CAMHB). CAMHB was supplemented with 50 µg/mL Ca^++ for daptomycin assay. The plates were incubated at 37° C. for 24 h and the individual MICs and the combination MICs were read. The fractional inhibitory concentration index (FICI) was determined using the following equation: FICI=(MIC of drug A in the combination/MIC of drug A alone)+(MIC of drug B in the combination/MIC of drug B alone). The combination was considered to be synergistic when the FICI was ≤0.5; additive when FICI was between 0.5-1.0; indifferent when FICI was between 1-4 and antagonistic when FICI was ≥4. The experiments were performed in triplicate and repeated twice.
# [5] = Table 4, S. aureus ATCC 29213 preformed biofilm, 6 h
# [6] = Table 4, S. aureus ATCC 29213 preformed biofilm, 24 h
# [7] = Table 4, S. aureus B9241 preformed biofilm, 6 h
# [8] = Table 4, S. aureus B9241 preformed biofilm, 24 h
# [9] = Table 4, S. aureus BK1 preformed biofilm, 6 h
# [10] = Table 4, S. aureus BK1 preformed biofilm, 24 h
compound,measurement,setting,value
gentamycin [reference compound],MBIC (individual),[1]; [5],>1000 µg/mL
same,MBIC (individual),[1]; [6],>1000 µg/mL
same,MBIC (individual),[1]; [7],>1000 µg/mL
same,MBIC (individual),[1]; [8],>1000 µg/mL
same,MBIC (individual),[1]; [9],>1000 µg/mL
same,MBIC (individual),[1]; [10],>1000 µg/mL
same,Reduction in MBIC in combination with P128,[1]; gentamycin sensitive strains ATCC29213 and BK1,> 250 fold
same,Effect on biofilm by SEM,[2],did not have any appreciable effect
same,MIC (drug alone),[3]; S. aureus ATCC 29213 (MSSA),0.4 µg/mL
same,MIC (drug alone),[3]; S. aureus B9241 (gentamycin and ciprofloxacin resistant),62 µg/mL
same,MIC (drug alone),"[3]; S. aureus BK1 (MRSA, ciprofloxacin resistant)",0.4 µg/mL
same,MIC on resistant strains,"[3]; planktonic S. aureus, strains resistant to the drug",62 µg/mL
same,MIC on sensitive strains,"[3]; planktonic S. aureus, strains sensitive to the drug",0.4 µg/mL
"O=C(O)c1cn(C2CC2)c2cc(N3CCNCC3)c(F)cc2c1=O [Ciprofloxacin, ciprofloxacin, reference compound]",MBIC (individual),[1]; [5],>250 µg/mL
same,MBIC (individual),[1]; [6],6.5 µg/mL
same,MBIC (individual),[1]; [7],>250 µg/mL
same,MBIC (individual),[1]; [8],250 µg/mL
same,MBIC (individual),[1]; [9],>250 µg/mL
same,MBIC (individual),[1]; [10],>250 µg/mL
CN(C)c1cc(NC(=O)CNC(C)(C)C)c(O)c2c1C[C@H]1C[C@H]3[C@H](N(C)C)C(O)=C(C(N)=O)C(=O)[C@@]3(O)C(O)=C1C2=O [Tigecycline],MIC,"[3]; 24 h, S. aureus BK18",4 µg/mL
"Cc1nnc(SCC2=C(C(=O)O)N3C(=O)[C@@H](NC(=O)Cn4cnnn4)[C@H]3SC2)s1 [Cephazolin, cephazolin]",MIC (drug alone),[3]; S. aureus COL (MRSA),>10 µg/mL
same,MIC (drug alone),[3]; S. aureus MW2 (MRSA),5 µg/mL
same,MIC (drug alone),[3]; S. aureus USA 300 (MRSA),>10 µg/mL
"Cc1onc(-c2ccccc2)c1C(=O)N[C@@H]1C(=O)N2[C@@H]1SC(C)(C)[C@@H]2C(=O)O [Oxacillin, oxacillin]",MIC,"[3]; MRSA / USA300, 24 h, S. aureus USA 300 (MRSA)",> 16 µg/mL
same,MIC,"[3]; MRSA, 24 h, MRSA strain BK22",> 16 µg/mL
same,MIC,"[3]; MRSA, 24 h, S. aureus COL (MRSA)",> 16 µg/mL
same,MIC,"[3]; MRSA, 24 h, S. aureus MW2 (MRSA)",> 16 µg/mL
same,MIC (drug alone),[4]; S. epidermidis B9470,16 µg/mL
same,MIC (drug alone),[4]; S. epidermidis B9471,16 µg/mL
same,MIC,"[4]; S. epidermidis B9467, read-out: MIC (drug alone)",8 µg/mL
same,MIC,"[4]; S. epidermidis B9468, read-out: MIC (drug alone)",0.12 µg/mL
same,MIC,"[4]; S. epidermidis B9470, read-out: MIC (drug alone)",> 8 µg/mL
same,MIC,"[4]; S. epidermidis B9471, read-out: MIC (drug alone)",> 8 µg/mL
same,MIC,"[4]; S. epidermidis B9472, read-out: MIC (drug alone)",16 µg/mL
same,MIC,"[4]; S. epidermidis B9473, read-out: MIC (drug alone)",16 µg/mL
same,MIC,"[4]; S. epidermidis, read-out: MIC on resistant strains",0.12 µg/mL
same,MIC,"[4]; S. epidermidis, read-out: MIC on the sensitive strains",16 µg/mL
"CC[C@H]1OC(=O)[C@H](C)[C@@H](O[C@H]2C[C@@](C)(OC)[C@@H](O)[C@H](C)O2)[C@H](C)[C@@H](O[C@@H]2O[C@H](C)C[C@H](N(C)C)[C@H]2O)[C@](C)(O)C[C@@H](C)CN(C)[C@H](C)[C@@H](O)[C@]1(C)O [Azithromycin, azithromycin]",MIC,"[3]; 24 h, S. aureus BK18",2 µg/mL

# — patent US20190282673A1, “STAPHTAME ACTIVITY ON BIOFILMS” (priority 2016, published 2019)
